Measurements reported in patent publication US9072698B2, “Method for screening anti-cancer compounds inhibiting function of TM4SF5 and anti-cancer composition containing chalcone compounds” (Seoul National University Industry Foundation, priority 2006, dated 2015).
≈ marks a conversion by molar mass, not a printed value.

What was measured:
Type in all cases: cell-based
A-549 (lung carcinoma) = experiment: In vitro cytotoxicity, sulforhodamine B (SRB) method, A-549; conditions: Homo sapiens, A549; A-549, SRB method; read-out: cytotoxicity (ED50) A-549
Description: (§1) The chalcone derivatives of the present invention were evaluated for in vitro cytotoxicity against human carcinoma cell lines using a sulforhodamine B (SRB) method, which was developed in 1989 by the National Cancer Institute (NCI), USA.
(§2) HCT15 (colon adenocarcinoma; ATCC CCL-225), PC-3 (prostate adenocarcinoma; ATCC CRL-1435), and A-549 (lung carcinoma; ATCC CCL-185) cell lines were used. All of these carcinoma cells were sub-cultured at the Korean Research Institute of Bioscience and Biotechnology (KRIBB), Korea.
(§3) The human carcinoma cell lines were cultured in 10% FCS-containing RPMI 1640 medium (Gibco Cat. No. 31800) in an incubator at 37° C. under 5% CO2, and sub-cultured twice per week.
(§4) Cells were detached from the attached surface using 0.25% Trypsin (Sigma) and 3 mM CDTA (1,2-cyclohexane diamine tetraacetic acid, Sigma) in phosphate buffered saline (PBS, Sigma).
(§5) Compounds to be tested (the chalcone derivatives set forth in Table 1) were dissolved in a small amount of dimethylsulfoxide (DMSO, Sigma), and diluted in culture medium to a desired concentration. The final concentration of DMSO was less than 0.5%. The diluted compounds (final concentration: 30, 10, 3, 1 and 0.3 μg/ml) were sterilized through a 0.22-μm microfilter (Millipore). The cytotoxicity of the compounds to human carcinoma cell lines was assessed using a typical SRB method.

[1] = test system: PC-3 (prostate adenocarcinoma); experiment: In vitro cytotoxicity, sulforhodamine B (SRB) method, PC-3; conditions: Homo sapiens; PC-3, SRB method; read-out: cytotoxicity (ED50) PC-3
Description: as §1, §2, §3, §4, §5

[2] = test system: HCT15 (colon adenocarcinoma); experiment: In vitro cytotoxicity, sulforhodamine B (SRB) method, HCT15; conditions: Homo sapiens; HCT-15, SRB method; read-out: cytotoxicity (ED50) HCT-15
Description: as §1, §2, §3, §4, §5

| SMILES | IC50 (A-549 (lung carcinoma)) | IC50 [1] | IC50 [2] |
| --- | --- | --- | --- |
| O=C(/C=C/c1ccc(O)c(O)c1)c1ccc(NS(=O)(=O)c2ccc([N+](=O)[O-])cc2)cc1 [Compound 75, 4′-(p-nitrobenzensulfonylamino)-3,4-dihydroxychalcone] | 14 µg/mL (≈ 31.8 µM) | 15 µg/mL (≈ 34.1 µM) | 8 µg/mL (≈ 18.2 µM) |
| O=C(/C=C/c1ccc(O)cc1O)c1cccc(NS(=O)(=O)c2cccc(O)c2)c1 [Compound 66, 3′-(m-hydroxybenzenesulfonylamino)-2,4-dihydroxychalcone] | 11 µg/mL (≈ 26.7 µM) | 13 µg/mL (≈ 31.6 µM) | 11 µg/mL (≈ 26.7 µM) |
| O=C(/C=C/c1ccc(O)cc1)c1ccc(OS(=O)(=O)c2cccc(O)c2)cc1 [Compound 87, 4′-(m-hydroxybenzenesulfonate)-4-hydroxychalcone] | 20 µg/mL (≈ 50.5 µM) | 21 µg/mL (≈ 53 µM) | 19 µg/mL (≈ 47.9 µM) |
| O=C(/C=C/c1ccc(O)cc1O)c1ccccc1NS(=O)(=O)c1cccc(O)c1 [Compound 70, 2′-(m-hydroxybenzenesulfonylamino)-2,4-dihydroxychalcone] | 9 µg/mL (≈ 21.9 µM) | 11 µg/mL (≈ 26.7 µM) | 8 µg/mL (≈ 19.4 µM) |
| Nc1ccc(S(=O)(=O)Nc2ccc(C(=O)/C=C/c3ccc(O)c(O)c3)cc2)cc1 [Compound 78, 4′-(p-aminobenzensulfonylamino)-3,4-dihydroxychalcone] | 10 µg/mL (≈ 24.4 µM) | 7 µg/mL (≈ 17.1 µM) | 5 µg/mL (≈ 12.2 µM) |
| O=C(/C=C/c1ccc(O)c(O)c1)c1ccccc1NS(=O)(=O)c1cccc(O)c1 [Compound 68, 2′-(m-hydroxybenzenesulfonylamino)-3,4-dihydroxychalcone] | 8 µg/mL (≈ 19.4 µM) | 10 µg/mL (≈ 24.3 µM) | 6 µg/mL (≈ 14.6 µM) |
| O=C(/C=C/c1cc(O)ccc1O)c1ccccc1NS(=O)(=O)c1ccc(O)cc1 [Compound 59, 2′-(p-hydroxybenzenesulfonylamino)-2,5-dihydroxychalcone] | 13 µg/mL (≈ 31.6 µM) | 20 µg/mL (≈ 48.6 µM) | 9 µg/mL (≈ 21.9 µM) |
| Cc1ccc(S(=O)(=O)Nc2ccc(C(=O)/C=C/c3cc(O)ccc3O)cc2)cc1 [Compound 45, 4′-(p-toluenesulfonylamino)-2,5-dihydroxychalcone] | 12 µg/mL (≈ 29.3 µM) | 14 µg/mL (≈ 34.2 µM) | 11 µg/mL (≈ 26.9 µM) |
| Cc1ccc(S(=O)(=O)Nc2ccccc2C(=O)/C=C/c2ccc(O)cc2)cc1 [Compound 5, 2′-(p-toluenesulfonylamino)-4-hydroxychalcone] | 40 µg/mL (≈ 102 µM) | 47 µg/mL (≈ 119 µM) | 42 µg/mL (≈ 107 µM) |
| CS(=O)(=O)Nc1ccc(C(=O)/C=C/c2ccc(O)cc2)cc1 [Compound 34, 4′-(methanesulfonylamino)-4-hydroxychalcone] | 74 µg/mL (≈ 233 µM) | 64 µg/mL (≈ 202 µM) | 54 µg/mL (≈ 170 µM) |
| Cc1ccc(S(=O)(=O)Nc2ccc(C(=O)/C=C/c3ccc(O)cc3Cl)cc2)cc1 [Compound 83, 4′-(p-toluenebenzensulfonylamino)-2-chloro-4-hydroxychalcone] | 11 µg/mL (≈ 25.7 µM) | 14 µg/mL (≈ 32.7 µM) | 15 µg/mL (≈ 35.1 µM) |
| O=C(/C=C/c1cccc(O)c1O)c1cccc(NS(=O)(=O)c2cccc(O)c2)c1 [Compound 65, 3′-(m-hydroxybenzenesulfonylamino)-2,3-dihydroxychalcone] | 4 µg/mL (≈ 9.72 µM) | 13 µg/mL (≈ 31.6 µM) | 9 µg/mL (≈ 21.9 µM) |
| Cc1ccc(S(=O)(=O)Nc2ccccc2C(=O)/C=C/c2ccc(O)c(O)c2)cc1 [Compound 47, 2′-(p-toluenesulfonylamino)-3,4-dihydroxychalcone] | 11 µg/mL (≈ 26.9 µM) | 17 µg/mL (≈ 41.5 µM) | 8 µg/mL (≈ 19.5 µM) |
| O=C(/C=C/c1ccc(O)cc1O)c1ccc(OS(=O)(=O)c2cccc(O)c2)cc1 [Compound 96, 4′-(m-hydroxybenzenesulfonate)-2,4-dihydroxychalcone] | 7 µg/mL (≈ 17 µM) | 24 µg/mL (≈ 58.2 µM) | 8 µg/mL (≈ 19.4 µM) |
| O=C(/C=C/c1ccc(O)c(O)c1)c1ccc(NS(=O)(=O)c2ccccc2)cc1 [Compound 81, 4′-(benzensulfonylamino)-3,4-dihydroxychalcone] | 28 µg/mL (≈ 70.8 µM) | 24 µg/mL (≈ 60.7 µM) | 14 µg/mL (≈ 35.4 µM) |
| O=C(/C=C/c1cc(O)ccc1O)c1cccc(NS(=O)(=O)c2ccc(O)cc2)c1 [Compound 55, 3′-(p-hydroxybenzenesulfonylamino)-2,5-dihydroxychalcone] | 7 µg/mL (≈ 17 µM) | 12 µg/mL (≈ 29.2 µM) | 6 µg/mL (≈ 14.6 µM) |
| Cc1ccc(S(=O)(=O)Oc2ccc(C(=O)/C=C/c3ccc(O)cc3)cc2)cc1 [Compound 35, 4′-(p-toluenesulfonate)-4-hydroxychalcone] | 47 µg/mL (≈ 119 µM) | 57 µg/mL (≈ 145 µM) | 51 µg/mL (≈ 129 µM) |
| O=C(/C=C/c1ccc(O)c(O)c1)c1cccc(NS(=O)(=O)c2ccc(O)cc2)c1 [Compound 52, 3′-(p-hydroxybenzenesulfonylamino)-3,4-dihydroxychalcone] | 6 µg/mL (≈ 14.6 µM) | 5 µg/mL (≈ 12.2 µM) | 7 µg/mL (≈ 17 µM) |

| SMILES | IC50 (A-549 (lung carcinoma)) | IC50 [1] | IC50 [2] |
| --- | --- | --- | --- |
| O=C(/C=C/c1ccc(O)cc1)c1ccccc1NS(=O)(=O)c1ccc(O)cc1 [Compound 12, 2′-(p-hydroxybenzenesulfonylamino)-4-hydroxychalcone] | 35 µg/mL (≈ 88.5 µM) | 37 µg/mL (≈ 93.6 µM) | 37 µg/mL (≈ 93.6 µM) |
| Cc1ccc(S(=O)(=O)Nc2ccc(C(=O)/C=C/c3ccccc3O)cc2)cc1 [Compound 3, 4′-(p-toluenesulfonylamino)-2-hydroxychalcone] | 35 µg/mL (≈ 89 µM) | 37 µg/mL (≈ 94 µM) | 40 µg/mL (≈ 102 µM) |
| O=C(/C=C/c1ccc(O)cc1)c1ccc(NS(=O)(=O)c2ccccc2F)cc1 [Compound 26, 4′-(o-fluorobenzensulfonylamino)-4-hydroxychalcone] | 20 µg/mL (≈ 50.3 µM) | 28 µg/mL (≈ 70.5 µM) | 22 µg/mL (≈ 55.4 µM) |
| O=C(/C=C/c1ccccc1O)c1ccccc1NS(=O)(=O)c1ccc(O)cc1 [Compound 14, 2′-(p-hydroxybenzenesulfonylamino)-2-hydroxychalcone] | 31 µg/mL (≈ 78.4 µM) | 29 µg/mL (≈ 73.3 µM) | 38 µg/mL (≈ 96.1 µM) |
| O=C(/C=C/c1ccccc1O)c1ccc(NS(=O)(=O)c2ccc(O)cc2)cc1 [Compound 8, 4′-(p-hydroxybenzenesulfonylamino)-2-hydroxychalcone] | 31 µg/mL (≈ 78.4 µM) | 34 µg/mL (≈ 86 µM) | 30 µg/mL (≈ 75.9 µM) |
| O=C(/C=C/c1cccc(O)c1O)c1ccccc1NS(=O)(=O)c1cccc(O)c1 [Compound 69, 2′-(m-hydroxybenzenesulfonylamino)-2,3-dihydroxychalcone] | 8 µg/mL (≈ 19.4 µM) | 16 µg/mL (≈ 38.9 µM) | 7 µg/mL (≈ 17 µM) |
| O=C(/C=C/c1ccc(O)cc1)c1ccc(NS(=O)(=O)c2ccc(F)cc2)cc1 [Compound 24, 4′-(p-fluorobenzensulfonylamino)-4-hydroxychalcone] | 50 µg/mL (≈ 126 µM) | 51 µg/mL (≈ 128 µM) | 55 µg/mL (≈ 138 µM) |
| O=C(/C=C/c1ccc(O)c(O)c1)c1ccc(NS(=O)(=O)c2ccc(O)cc2)cc1 [Compound 48, 4′-(p-hydroxybenzenesulfonylamino)-3,4-dihydroxychalcone] | 8 µg/mL (≈ 19.4 µM) | 11 µg/mL (≈ 26.7 µM) | 7 µg/mL (≈ 17 µM) |
| O=C(/C=C/c1ccc(O)cc1)c1ccc(NS(=O)(=O)c2ccccc2)cc1 [Compound 33, 4′-(benzensulfonylamino)-4-hydroxychalcone] | 45 µg/mL (≈ 119 µM) | 42 µg/mL (≈ 111 µM) | 47 µg/mL (≈ 124 µM) |
| O=C(/C=C/c1ccc(O)cc1)c1ccc(NS(=O)(=O)c2cccc(F)c2)cc1 [Compound 25, 4′-(m-fluorobenzensulfonylamino)-4-hydroxychalcone] | 51 µg/mL (≈ 128 µM) | 57 µg/mL (≈ 143 µM) | 54 µg/mL (≈ 136 µM) |
| O=C(/C=C/c1cccc(O)c1)c1ccccc1NS(=O)(=O)c1cccc(O)c1 [Compound 22, 2′-(m-hydroxybenzenesulfonylamino)-3-hydroxychalcone] | 27 µg/mL (≈ 68.3 µM) | 45 µg/mL (≈ 114 µM) | 28 µg/mL (≈ 70.8 µM) |
| O=C(/C=C/c1cc(O)ccc1O)c1ccccc1NS(=O)(=O)c1cccc(O)c1 [Compound 71, 2′-(m-hydroxybenzenesulfonylamino)-2,5-dihydroxychalcone] | 7 µg/mL (≈ 17 µM) | 24 µg/mL (≈ 58.3 µM) | 12 µg/mL (≈ 29.2 µM) |
| CS(=O)(=O)Nc1ccc(C(=O)/C=C/c2ccc(O)c(O)c2)cc1 [Compound 82, 4′-(methanesulfonylamino)-3,4-dihydroxychalcone] | 17 µg/mL (≈ 51 µM) | 22 µg/mL (≈ 66 µM) | 12 µg/mL (≈ 36 µM) |
| O=C(/C=C/c1ccc(O)c(O)c1)c1ccc(NS(=O)(=O)c2cccc([N+](=O)[O-])c2)cc1 [Compound 76, 4′-(m-nitrobenzensulfonylamino)-3,4-dihydroxychalcone] | 11 µg/mL (≈ 25 µM) | 17 µg/mL (≈ 38.6 µM) | 12 µg/mL (≈ 27.2 µM) |
| O=C(/C=C/c1ccc(O)cc1)c1cccc(NS(=O)(=O)c2cccc(O)c2)c1 [Compound 18, 3′-(m-hydroxybenzenesulfonylamino)-4-hydroxychalcone] | 31 µg/mL (≈ 78.4 µM) | 39 µg/mL (≈ 98.6 µM) | 33 µg/mL (≈ 83.5 µM) |
| O=C(/C=C/c1cc(O)ccc1O)c1cccc(NS(=O)(=O)c2cccc(O)c2)c1 [Compound 67, 3′-(m-hydroxybenzenesulfonylamino)-2,5-dihydroxychalcone] | 14 µg/mL (≈ 34 µM) | 15 µg/mL (≈ 36.5 µM) | 7 µg/mL (≈ 17 µM) |
| O=C(/C=C/c1ccc(O)c(O)c1)c1ccc(OS(=O)(=O)c2cccc(O)c2)cc1 [Compound 94, 4′-(m-hydroxybenzenesulfonate)-3,4-dihydroxychalcone] | 11 µg/mL (≈ 26.7 µM) | 16 µg/mL (≈ 38.8 µM) | 7 µg/mL (≈ 17 µM) |
